# In patent publication US20200085839A1, “COMBINATION OF IMMUNOTHERAPEUTICS AND BISFLUOROALKYL-1,4-BENZODIAZEPINONE COMPOUNDS FOR TREATING LYMPHOMAS” (Ayala Pharmaceuticals Inc., priority 2018, published 2020):
# Like-named read-outs stand apart in the source and are kept apart here.
# Key:
# [1] = system: U266 human multiple myeloma cell line; assay: Combination index (Chou and Talalay) of Compound (1) with BCMA-CAR-T; assay type: cell-based; conditions: Compound (1) 10-80 nM with BCMA-CAR-T 10^9 cells
# Protocol: (§1) Drug interaction analysis and the confirmation of synergism is determined by the method of Chou and Talalay. Linear regression analysis of dose-response data is performed using Calcusyn 1.2 software (Biosoft, Cambridge, United Kingdom) to calculate a combination index (CI) for each individual drug combination. To ensure valid statistical analysis, only experimental data for which the linear correlation coefficient of the median-effect plot was more than 0.9 are included. CI values are defined as: […]
# (§2) The combination of Compound (1) with BCMA-CAR-T in models of human multiple myeloma in vitro lead to synergistic cell killing. Specifically, Compound (1) when used at concentrations between 10-80 nM (concentrations that are relevant in patients) in combination with BCMA-CAR-T at concentrations of 10^9 cells produce synergistic cell killing in the U266 and RPMI-8226 human multiple myeloma cell lines.
# [2] = system: RPMI-8226 human multiple myeloma cell line; assay: as above; assay type: cell-based; conditions: Compound (1) 10-80 nM with BCMA-CAR-T 10^9 cells
# Protocol: as §1, §2
# [3] = system: U266 human myeloma cell line cells in NSG mice; assay: Anti-tumor activity of BCMA-targeted CAR-T cells and Compound (1) in vivo; conditions: combination with 1×10^6 BCMA targeted CAR-T cells IV on day 4; imaging day 11
# Protocol: BCMA targeted CAR-T cells mediate an anti-myeloma immune response. 1×10^7 U266 human myeloma cell line cells are injected IV into NSG mice on day 0. On day 4, a) 1×10^6 BCMA targeted second generation CAR-T cells, Compound (1) or both are injected IV.
# [4] = system: MC-116 cells (B-cell Lymphoma); assay: Soluble (shed) BCMA by ELISA; assay type: cell-based, human
# Protocol: (§3) […] cell lines, comprising 9 subtypes of lymphomas (see Table 1), were seeded at 1×10^5 cells/well in a total volume of 250 μl into a 96-well plate. The cells were cultured in RPMI medium supplemented with 10% FCS. Compound (22) was added to the cell cultures at a concentration of 10 μM, 1 μM, 100 nM, 10 nM, 1 nM, 100 pM, 10 pM, 1 pM, and 100 fM, and cell lines (8 from Hadassah Medical Center, 31 from Eurofins) were incubated at 37° C. for 24 hours with Compound (22). Following incubation, the cells were collected and BCMA levels were evaluated on the cell surface for cell-bound BCMA. Cells were stained with an anti-BCMA antibody (PE anti-human 19F2 BCMA, Biolegend), and cell surface BCMA levels were determined by FACS analysis (Mean Fluorescence Intensity. Soluble BCMA levels were analyzed by ELISA (Human BCMA/TNFRSF17 DuoSet kit: R&D Systems).
# [5] = system: SUDHL-10 cells (DLBCL); assay: Soluble (shed) BCMA by ELISA; assay type: cell-based, human
# Protocol: as §3
# [6] = system: Jiyoye cells (Burkitt's Lymphoma); assay: Soluble (shed) BCMA by ELISA; assay type: cell-based, human
# Protocol: as §3
# [7] = system: DB cells (DLBCL); assay: Cell surface BCMA by FACS; assay type: cell-based, human; conditions: for EC50: Homo sapiens
# Protocol: as §3
# [8] = system: MC-116 cells (B-cell Lymphoma); assay: Cell surface BCMA by FACS; assay type: cell-based, human; conditions: for EC50: Homo sapiens
# Protocol: as §3
# [9] = system: DOHH-2 cells (DLBCL); assay: Cell surface BCMA by FACS; assay type: cell-based, human; conditions: for EC50: Homo sapiens
# Protocol: as §3
# [10] = system: BCP-1 cells (B-cell Lymphoma); assay: Cell surface BCMA by FACS; assay type: cell-based, human; conditions: for EC50: Homo sapiens
# Protocol: as §3
# [11] = system: Jeko-1 cells (Mantle Cell Lymphoma); assay: Cell surface BCMA by FACS; assay type: cell-based, human; conditions: for EC50: Homo sapiens
# Protocol: as §3
# [12] = system: EB-2 cells (Burkitt's Lymphoma); assay: Cell surface BCMA by FACS; assay type: cell-based, human; conditions: for EC50: Homo sapiens
# Protocol: as §3
# [13] = system: SR cells (Anaplastic Large Cell Lymphoma); assay: Cell surface BCMA by FACS; assay type: cell-based, human; conditions: for EC50: Homo sapiens
# Protocol: as §3
# [14] = system: CRO-AP2 cells (B-cell Lymphoma); assay: Cell surface BCMA by FACS; assay type: cell-based, human; conditions: for EC50: Homo sapiens
# Protocol: as §3
# [15] = system: Namalwa cells (Burkitt's Lymphoma); assay: Cell surface BCMA by FACS; assay type: cell-based, human; conditions: for EC50: Homo sapiens
# Protocol: as §3
# [16] = system: Ramos cells (Burkitt's Lymphoma); assay: Cell surface BCMA by FACS; assay type: cell-based, human; conditions: for EC50: Homo sapiens
# Protocol: as §3
# [17] = system: U937 cells (Histiocytic Lymphoma); assay: Cell surface BCMA by FACS; assay type: cell-based, human; conditions: for EC50: Homo sapiens
# Protocol: as §3
# [18] = 24 h, read-out: BCMA (Mean Fluorescence Intensity) EC50
structure (smiles),measurement,setting,value
"CN1C(=O)[C@@H](NC(=O)[C@H](CCC(F)(F)F)[C@H](CCC(F)(F)F)C(N)=O)N=C(c2ccccc2)c2ccccc21 [Compound 1, (2R,3S)—N-((3S)-1-methyl-2-oxo-5-phenyl-2,3-dihydro-1H-1,4-benzodiazepin-3-yl)-2,3-bis(3,3,3-trifluoropropyl)succinamide]","cell killing, combination index (CI) class",[1],synergistic (0.3 < CI ≤ 0.9)
same,"cell killing, combination index (CI) class",[2],synergistic (0.3 < CI ≤ 0.9)
same,"anti-tumor response, imaging of tumors",[3],improved anti-tumor response compared to either BCMA targeted CAR-T or Compound (1) treatment alone
"Cc1cccc2c1NC(=O)[C@@H](NC(=O)[C@H](CCC(F)(F)F)[C@H](CCC(F)(F)F)C(N)=O)N=C2c1cccc(F)c1 [Compound (22), (2R,3S)—N-((3S)-5-(3-fluorophenyl)-9-methyl-2-oxo-2,3-dihydro-1H-1,4-benzodiazepin-3-yl)-2,3-bis(3,3,3-trifluoropropyl)succinamide]",EC50,"[4]; Homo sapiens, MC116, MC-116, read-out: Shed BCMA (pg/ml) EC50",6.5 nM
same,soluble BCMA 1 nM Compound (22),"[4]; MC116, 1 nM, 24 h",1810.6
same,soluble BCMA 10 nM Compound (22),"[4]; MC116, 10 nM, 24 h",414.8
same,soluble BCMA 100 nM Compound (22),"[4]; MC116, 100 nM, 24 h",303.7
same,Shed BCMA (pg/ml) % Reduction,[4]; MC-116,76%
same,Shed BCMA (pg/ml) % Reduction,[5],97%
same,EC50,"[5]; Homo sapiens, SU-DHL10, read-out: Shed BCMA (pg/ml) EC50",0.9 nM
same,EC50,"[6]; Homo sapiens, JIYOYE, read-out: Shed BCMA (pg/ml) EC50",2.3 nM
same,soluble BCMA 10 nM Compound (22),"[6]; JIYOYE, 10 nM, 24 h",472.3
same,Shed BCMA (pg/ml) % Reduction,[6]; Jiyoye,81%
same,soluble BCMA 1 nM Compound (22),"[6]; Jiyoye, 1 nM, 24 h",1707.7
same,soluble BCMA 100 nM Compound (22),"[6]; Jiyoye, 100 nM, 24 h",373.1
same,soluble BCMA,"[6]; Jiyoye, FIG. 8B",decreased soluble BCMA
same,mBCMA (MFI) Fold Increase,[7],4.1 fold
same,BCMA (Mean Fluorescence Intensity) 1 nM Compound (22),"[7]; 1 nM, 24 h",870
same,BCMA (Mean Fluorescence Intensity) 100 nM Compound (22),"[7]; 100 nM, 24 h",1827
same,cell-bound BCMA,[7]; FIG. 9A,increased cell-bound BCMA
same,EC50,[7]; [18],4.9 nM
same,EC50,[7]; read-out: mBCMA (MFI) EC50,4.9 nM
same,mBCMA (MFI) Fold Increase,[8],4.2 fold
same,BCMA (Mean Fluorescence Intensity) 1 nM Compound (22),"[8]; 1 nM, 24 h",915
same,BCMA (Mean Fluorescence Intensity) 100 nM Compound (22),"[8]; 100 nM, 24 h",1850
same,EC50,"[8]; MC116, 24 h, read-out: BCMA (Mean Fluorescence Intensity) EC50",1.9 nM
same,EC50,"[8]; MC116, read-out: mBCMA (MFI) EC50",1.9 nM
same,mBCMA (MFI) Fold Increase,[9],4.4 fold
same,BCMA (Mean Fluorescence Intensity) 1 nM Compound (22),"[9]; 1 nM, 24 h",8033
same,BCMA (Mean Fluorescence Intensity) 100 nM Compound (22),"[9]; 100 nM, 24 h",12620
same,EC50,[9]; [18],0.87 nM
same,EC50,[9]; read-out: mBCMA (MFI) EC50,0.87 nM
same,mBCMA (MFI) Fold Increase,[10],2.9 fold
same,BCMA (Mean Fluorescence Intensity) 1 nM Compound (22),"[10]; 1 nM, 24 h",398
same,BCMA (Mean Fluorescence Intensity) 100 nM Compound (22),"[10]; 100 nM, 24 h",1159
same,cell-bound BCMA,[10]; FIG. 6A,increased cell-bound BCMA
same,EC50,[10]; [18],45.6 nM
same,EC50,[10]; read-out: mBCMA (MFI) EC50,45.6 nM
same,EC50,"[11]; JeKo-1, read-out: mBCMA (MFI) EC50",1.2 nM
same,EC50,"[11]; Jeko-1, 24 h, read-out: BCMA (Mean Fluorescence Intensity) EC50",1.2 nM
same,mBCMA (MFI) Fold Increase,[11]; Jeko-1,7.4 fold
same,BCMA (Mean Fluorescence Intensity) 1 nM Compound (22),"[11]; Jeko-1, 1 nM, 24 h",1654
same,BCMA (Mean Fluorescence Intensity) 100 nM Compound (22),"[11]; Jeko-1, 100 nM, 24 h",2885
same,mBCMA (MFI) Fold Increase,[12],5.4 fold
same,BCMA (Mean Fluorescence Intensity) 1 nM Compound (22),"[12]; 1 nM, 24 h",18536
same,BCMA (Mean Fluorescence Intensity) 100 nM Compound (22),"[12]; 100 nM, 24 h",28188
same,EC50,"[12]; EB2, 24 h, read-out: BCMA (Mean Fluorescence Intensity) EC50",0.98 nM
same,EC50,"[12]; EB2, read-out: mBCMA (MFI) EC50",0.98 nM
same,mBCMA (MFI) Fold Increase,[13],1.0 fold
same,BCMA (Mean Fluorescence Intensity) 1 nM Compound (22),"[13]; 1 nM, 24 h",289
same,BCMA (Mean Fluorescence Intensity) 100 nM Compound (22),"[13]; 100 nM, 24 h",293
same,EC50,[13]; [18],> 10000 nM
same,EC50,[13]; read-out: mBCMA (MFI) EC50,> 10000 nM
same,mBCMA (MFI) Fold Increase,[14],6.6 fold
same,BCMA (Mean Fluorescence Intensity) 1 nM Compound (22),"[14]; 1 nM, 24 h",855
same,BCMA (Mean Fluorescence Intensity) 100 nM Compound (22),"[14]; 100 nM, 24 h",4782
same,EC50,[14]; [18],5.6 nM
same,EC50,[14]; read-out: mBCMA (MFI) EC50,5.6 nM
same,mBCMA (MFI) Fold Increase,[15],2.0 fold
same,BCMA (Mean Fluorescence Intensity) 1 nM Compound (22),"[15]; 1 nM, 24 h",1395
same,BCMA (Mean Fluorescence Intensity) 100 nM Compound (22),"[15]; 100 nM, 24 h",1690
same,EC50,[15]; [18],10.7 nM
same,EC50,[15]; read-out: mBCMA (MFI) EC50,10.7 nM
same,mBCMA (MFI) Fold Increase,[16],10.8 fold
same,BCMA (Mean Fluorescence Intensity) 1 nM Compound (22),"[16]; 1 nM, 24 h",4899
same,BCMA (Mean Fluorescence Intensity) 100 nM Compound (22),"[16]; 100 nM, 24 h",10264
same,EC50,[16]; [18],1.4 nM
same,EC50,[16]; read-out: mBCMA (MFI) EC50,1.4 nM
same,mBCMA (MFI) Fold Increase,[17],1.0 fold
same,BCMA (Mean Fluorescence Intensity) 1 nM Compound (22),"[17]; 1 nM, 24 h",327
same,BCMA (Mean Fluorescence Intensity) 100 nM Compound (22),"[17]; 100 nM, 24 h",328
same,EC50,"[17]; U-937, 24 h, read-out: BCMA (Mean Fluorescence Intensity) EC50",> 10000 nM
same,EC50,"[17]; U-937, read-out: mBCMA (MFI) EC50",> 10000 nM
